In brackets after ≈: the same amount, converted by molar mass.
Legend:
Format in all cases: physicochemical
physchem = experiment: physchem
Source text: From the above point of view, the inventors of the present invention studied, at first, the solubility of the compound (I) in water. As a test compound, the inventors selected the following compound as a free form which has an excellent immunosupressive activity and is called FK 506 hereafter. R^1, R^2, R^8, R^23 = hydrogen R^7, R^9 = hydroxy R^14, R^15, R^16, R^17, R^18, R^19, R^22 = methyl R^10 = allyl R^20 = R^20a,H (R^20a = methoxy) X, Y = oxygen R^21 = R^21a,H (R^21a = hydroxy) n = 2 R^3, R^4 = form a second bond between the vicinal carbon atoms to which they are attached R^5, R^6 = form a second bond between the vicinal carbon atoms to which they are attached
The solubility of FK 506 in water is at most 3 µg/ml under ambient temperature. Accordingly, it is decided to add a surface active agent in order to increase the solubility of FK 506 in water to the level where the clinically effective amount of FK 506 is dissolved. […] As a surface active agent, a castor oil-surface active agent i.e., HCO-10, HCO-40, HCO-60 (trademark, prepared by Nikko Chemicals, respectively) are selected for examination.
It is conjectured from the result shown in Table 1 that the concentration of the surface active agent should be controlled at 1.43w/v% [about 150mg of the surface active agent against 1mg of FK506] to dissolve 0.1mg of FK 506 in 1ml of water, calculating based on the result that 0.035mg of FK 506 is dissolved in 1ml of 0.5w/v% HCO-60 aqueous solution at 20 °C. Accordingly, if it is desired to prepare 5mg/ml aqueous solution FK 506, the concentration of the surface active agent is estimated to come up to 87w/v% from the calculation based on the result of HCO-60, 20w/v%, 20°C. Such […] high concentration of surface active agent in aqueous solution should not be realized in practice of clinical field.

[1] = solubility of FK 506 in nonaqueous solvents; conditions: for solubility: ambient temperature
[2] = dilution of the solution with physiological saline: clarity, turbidity and crystal separation
Experimental: Nonaqueous solvent is, at the time of administrating into the human vascular tract, usually diluted with aqueous solvent such as physiological saline, since nonaqueous solvent has hemolysis action.
The experimental solution (1ml) of the following prescription 3 consisting of FK 506, surface active agent and nonaqueous solvent was diluted with physiological saline (100ml) to find that the clear appearance of prescription was kept unchanged.
Then several prescriptions of clear solution were further prepared altering the concentration of FK 506, the kind and the concentration of surface active agent, and were tested how change the clearity of the solution and whether separate out the crystal or not under the several condition of different degree of dilution.

[3] = remaining percentage of FK 506 in aqueous solution with large amount of surface active agent (storage stability); conditions: FK 506 dissolved in water in the presence of large amount of surface active agent; Table 2 is an image

C=CCC1C=C(C)CC(C)CC(OC)C2OC(O)(C(=O)C(=O)N3CCCCC3C(=O)OC(C(C)=CC3CCC(O)C(OC)C3)C(C)C(O)CC1=O)C(C)CC2OC (stereo not shown) [FK 506, 17-allyl-1,14-dihydroxy-12-[2-(4-hydroxy-3-methoxycyclohexyl)-1-methylvinyl]-23, 25-dimethoxy-13,19,21,27-tetramethyl-11, 28-dioxa-4-azatricyclo-[22.3.1.0^4.9] octacos-18-ene-2,3,10,16-tetraone]
amount of the surface active agent against 1mg of FK506 (physchem): about 150 mg
concentration of the surface active agent to prepare 5mg/ml aqueous solution FK 506 (physchem): 87 w/v%
concentration of the surface active agent to dissolve 0.1mg of FK 506 in 1ml of water (physchem; calculated from 0.035mg/ml in 0.5w/v% HCO-60 at 20 °C): 1.43 w/v%
solubility (physchem; hco-40 5 w/v% aqueous, solubility of FK506): 400 µg/mL (≈ 497 µM)
solubility (physchem; hco-40 10 w/v% aqueous, solubility of FK506): 780 µg/mL (≈ 970 µM)
solubility (physchem; hco-40 20 w/v% aqueous, solubility of FK506): 1520 µg/mL (≈ 1890 µM)
solubility (physchem; hco-60 0.1 w/v% aqueous, solubility of FK506): 5 µg/mL (≈ 6.22 µM)
solubility (physchem; hco-60 0.3 w/v% aqueous, solubility of FK506): 19 µg/mL (≈ 23.6 µM)
solubility (physchem; hco-60 0.5 w/v% aqueous, solubility of FK506): 35 µg/mL (≈ 43.5 µM)
solubility of FK506 (physchem; hco-60 5 w/v% aqueous): 290 µg/mL
solubility (physchem; hco-60 5 w/v% aqueous, solubility of FK506): 280 µg/mL (≈ 348 µM)
solubility of FK506 (physchem; hco-60 10 w/v% aqueous): 570 µg/mL
solubility (physchem; hco-60 10 w/v% aqueous, solubility of FK506): 610 µg/mL (≈ 759 µM)
solubility of FK506 (physchem; hco-60 20 w/v% aqueous): 1140 µg/mL
solubility (physchem; hco-60 20 w/v% aqueous, solubility of FK506): 1150 µg/mL (≈ 1430 µM)
solubility of FK506 (physchem; hco-60/hco-10 (4:1) 5 w/v%): 270 µg/mL
solubility (physchem; hco-60/hco-10 (4:1) 5 w/v%, solubility of FK506): 260 µg/mL (≈ 323 µM)
solubility of FK506 (physchem; hco-60/hco-10 (4:1) 10 w/v%): 560 µg/mL
solubility (physchem; hco-60/hco-10 (4:1) 10 w/v%, solubility of FK506): 560 µg/mL (≈ 696 µM)
solubility of FK506 (physchem; hco-60/hco-10 (4:1) 20 w/v%): 1140 µg/mL
solubility (physchem; hco-60/hco-10 (4:1) 20 w/v%, solubility of FK506): 1130 µg/mL (≈ 1410 µM)
solubility (physchem; water, solubility of FK 506 in water): ≤ 3 µg/mL
concentration at which FK 506 is dissolved in the experimented solvent ([1]; PEG 400, ethanol and propylene glycol (summary of Table 3)): more than 40 mg/ml
solubility ([1]; Solvent Ethanol): > 300000 µg/mL
solubility ([1]; Solvent PEG 400): > 40000 µg/mL
solubility ([1]; Solvent Propylene glycol): > 40000 µg/mL
Period till solution becomes turbid to crystallize FK506 ([2]; FK 506 5 mg/ml, dilution times with physiological saline 2, Cremophor®EL, ethanol/surface active agent 35/65): ≧7 days
Period till solution becomes turbid to crystallize FK506 ([2]; FK 506 5 mg/ml, dilution times with physiological saline 2, Cremophor®EL, ethanol/surface active agent 80/20): ≧7 days
Period till solution becomes turbid to crystallize FK506 ([2]; FK 506 5 mg/ml, dilution times with physiological saline 2, HCO-40, ethanol/surface active agent 40/60): ≧7 days
Period till solution becomes turbid to crystallize FK506 ([2]; FK 506 5 mg/ml, dilution times with physiological saline 2, HCO-40, ethanol/surface active agent 80/20): ≧7 days
Period till solution becomes turbid to crystallize FK506 ([2]; FK 506 5 mg/ml, dilution times with physiological saline 2, HCO-60, ethanol/surface active agent 35/65): ≧7 days
Period till solution becomes turbid to crystallize FK506 ([2]; FK 506 5 mg/ml, dilution times with physiological saline 2, HCO-60, ethanol/surface active agent 60/40): ≧7 days
Period till solution becomes turbid to crystallize FK506 ([2]; FK 506 5 mg/ml, dilution times with physiological saline 2, HCO-60, ethanol/surface active agent 80/20): ≧7 days
Period till solution becomes turbid to crystallize FK506 ([2]; FK 506 5 mg/ml, dilution times with physiological saline 100, Cremophor®EL, ethanol/surface active agent 35/65): ≧7 days
Period till solution becomes turbid to crystallize FK506 ([2]; FK 506 5 mg/ml, dilution times with physiological saline 100, Cremophor®EL, ethanol/surface active agent 80/20): ≧7 days
Period till solution becomes turbid to crystallize FK506 ([2]; FK 506 5 mg/ml, dilution times with physiological saline 100, HCO-40, ethanol/surface active agent 40/60): ≧7 days
Period till solution becomes turbid to crystallize FK506 ([2]; FK 506 5 mg/ml, dilution times with physiological saline 100, HCO-40, ethanol/surface active agent 80/20): ≧7 days
Period till solution becomes turbid to crystallize FK506 ([2]; FK 506 5 mg/ml, dilution times with physiological saline 100, HCO-60, ethanol/surface active agent 35/65): ≧7 days
Period till solution becomes turbid to crystallize FK506 ([2]; FK 506 5 mg/ml, dilution times with physiological saline 100, HCO-60, ethanol/surface active agent 60/40): ≧7 days
Period till solution becomes turbid to crystallize FK506 ([2]; FK 506 5 mg/ml, dilution times with physiological saline 100, HCO-60, ethanol/surface active agent 80/20): ≧7 days
Period till solution becomes turbid to crystallize FK506 ([2]; FK 506 10 mg/ml, dilution times with physiological saline 2, Cremophor®EL, ethanol/surface active agent 35/65): ≧7 days
Period till solution becomes turbid to crystallize FK506 ([2]; FK 506 10 mg/ml, dilution times with physiological saline 2, Cremophor®EL, ethanol/surface active agent 80/20): ≧7 days
Period till solution becomes turbid to crystallize FK506 ([2]; FK 506 10 mg/ml, dilution times with physiological saline 2, HCO-40, ethanol/surface active agent 40/60): ≧7 days
Period till solution becomes turbid to crystallize FK506 ([2]; FK 506 10 mg/ml, dilution times with physiological saline 2, HCO-40, ethanol/surface active agent 80/20): ≧7 days
Period till solution becomes turbid to crystallize FK506 ([2]; FK 506 10 mg/ml, dilution times with physiological saline 2, HCO-60, ethanol/surface active agent 35/65): ≧7 days
Period till solution becomes turbid to crystallize FK506 ([2]; FK 506 10 mg/ml, dilution times with physiological saline 2, HCO-60, ethanol/surface active agent 60/40): ≧7 days
Period till solution becomes turbid to crystallize FK506 ([2]; FK 506 10 mg/ml, dilution times with physiological saline 2, HCO-60, ethanol/surface active agent 80/20): ≧7 days
Period till solution becomes turbid to crystallize FK506 ([2]; FK 506 10 mg/ml, dilution times with physiological saline 100, Cremophor®EL, ethanol/surface active agent 35/65): ≧7 days
Period till solution becomes turbid to crystallize FK506 ([2]; FK 506 10 mg/ml, dilution times with physiological saline 100, Cremophor®EL, ethanol/surface active agent 80/20): ≧7 days
Period till solution becomes turbid to crystallize FK506 ([2]; FK 506 10 mg/ml, dilution times with physiological saline 100, HCO-40, ethanol/surface active agent 40/60): ≧7 days
Period till solution becomes turbid to crystallize FK506 ([2]; FK 506 10 mg/ml, dilution times with physiological saline 100, HCO-40, ethanol/surface active agent 80/20): ≧7 days
Period till solution becomes turbid to crystallize FK506 ([2]; FK 506 10 mg/ml, dilution times with physiological saline 100, HCO-60, ethanol/surface active agent 35/65): ≧7 days
Period till solution becomes turbid to crystallize FK506 ([2]; FK 506 10 mg/ml, dilution times with physiological saline 100, HCO-60, ethanol/surface active agent 60/40): ≧7 days
Period till solution becomes turbid to crystallize FK506 ([2]; FK 506 10 mg/ml, dilution times with physiological saline 100, HCO-60, ethanol/surface active agent 80/20): ≧7 days
Period till solution becomes turbid to crystallize FK506 ([2]; FK 506 25 mg/ml, dilution times with physiological saline 2, Cremophor®EL, ethanol/surface active agent 35/65): ≧7 days
Period till solution becomes turbid to crystallize FK506 ([2]; FK 506 25 mg/ml, dilution times with physiological saline 2, Cremophor®EL, ethanol/surface active agent 80/20): ≧7 days
Period till solution becomes turbid to crystallize FK506 ([2]; FK 506 25 mg/ml, dilution times with physiological saline 2, HCO-40, ethanol/surface active agent 40/60): ≧7 days
Period till solution becomes turbid to crystallize FK506 ([2]; FK 506 25 mg/ml, dilution times with physiological saline 2, HCO-40, ethanol/surface active agent 80/20): ≧7 days
Period till solution becomes turbid to crystallize FK506 ([2]; FK 506 25 mg/ml, dilution times with physiological saline 2, HCO-60, ethanol/surface active agent 35/65): ≧7 days
Period till solution becomes turbid to crystallize FK506 ([2]; FK 506 25 mg/ml, dilution times with physiological saline 2, HCO-60, ethanol/surface active agent 60/40): ≧7 days
Period till solution becomes turbid to crystallize FK506 ([2]; FK 506 25 mg/ml, dilution times with physiological saline 2, HCO-60, ethanol/surface active agent 80/20): ≧7 days
Period till solution becomes turbid to crystallize FK506 ([2]; FK 506 25 mg/ml, dilution times with physiological saline 100, Cremophor®EL, ethanol/surface active agent 35/65): ≧7 days
Period till solution becomes turbid to crystallize FK506 ([2]; FK 506 25 mg/ml, dilution times with physiological saline 100, Cremophor®EL, ethanol/surface active agent 80/20): ≧1 days
Period till solution becomes turbid to crystallize FK506 ([2]; FK 506 25 mg/ml, dilution times with physiological saline 100, HCO-40, ethanol/surface active agent 40/60): ≧7 days
Period till solution becomes turbid to crystallize FK506 ([2]; FK 506 25 mg/ml, dilution times with physiological saline 100, HCO-40, ethanol/surface active agent 80/20): ≧1 days
Period till solution becomes turbid to crystallize FK506 ([2]; FK 506 25 mg/ml, dilution times with physiological saline 100, HCO-60, ethanol/surface active agent 35/65): ≧7 days
Period till solution becomes turbid to crystallize FK506 ([2]; FK 506 25 mg/ml, dilution times with physiological saline 100, HCO-60, ethanol/surface active agent 60/40): ≧1 days
Period till solution becomes turbid to crystallize FK506 ([2]; FK 506 25 mg/ml, dilution times with physiological saline 100, HCO-60, ethanol/surface active agent 80/20): ≧7 days
Period till solution becomes turbid to crystallize FK506 ([2]; FK 506 50 mg/ml, dilution times with physiological saline 2, Cremophor®EL, ethanol/surface active agent 35/65): ≧7 days
Period till solution becomes turbid to crystallize FK506 ([2]; FK 506 50 mg/ml, dilution times with physiological saline 2, Cremophor®EL, ethanol/surface active agent 80/20): ≧1 days
Period till solution becomes turbid to crystallize FK506 ([2]; FK 506 50 mg/ml, dilution times with physiological saline 2, HCO-40, ethanol/surface active agent 40/60): ≧7 days
Period till solution becomes turbid to crystallize FK506 ([2]; FK 506 50 mg/ml, dilution times with physiological saline 2, HCO-40, ethanol/surface active agent 80/20): ≧1 days
Period till solution becomes turbid to crystallize FK506 ([2]; FK 506 50 mg/ml, dilution times with physiological saline 2, HCO-60, ethanol/surface active agent 35/65): ≧7 days
Period till solution becomes turbid to crystallize FK506 ([2]; FK 506 50 mg/ml, dilution times with physiological saline 2, HCO-60, ethanol/surface active agent 60/40): ≧7 days
Period till solution becomes turbid to crystallize FK506 ([2]; FK 506 50 mg/ml, dilution times with physiological saline 2, HCO-60, ethanol/surface active agent 80/20): ≧7 days
remaining percentage of FK 506 in aqueous solution (storage stability) [3]: stability for long period storage is not expectable

Source: EP0444659B1, “A pharmaceutical solution comprising derivatives of FK506” (FUJISAWA PHARMACEUTICAL CO., LTD., priority 1990, dated 1991)
